# PubChem BioAssay AID1963871 (Molecular Pharmacology Branch, DTP, NCI, 2024)
# System: KRAS-mutant PDC multicell tumor spheroid viability
# Experiment: Anticancer human tumor 521955-158-R2-J5-PDC patient-derived pancreatic carcinoma cell line growth inhibition [KRAS2]
# Settings: for IC50: curve of first compound; for viability, T/C: stronger effect = lower value
# Summary of the method: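 Combination screen of spheroid viability in tumor-cell co-cultures with endothelial (HUVEC) and mesenchymal stem cell stroma. Each agent was tested in half-log dilutions, topping at clinical Cmax or at 10 microM without a known Cmax.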
# [1] = second compound 0.0316 µM, first compound 0.0316 µM
# [2] = second compound 0.0316 µM, first compound 0.1 µM
# [3] = second compound 0.0316 µM, first compound 0.316 µM
# [4] = second compound 0.0316 µM, first compound 1 µM
# [5] = second compound 0.0316 µM, first compound 3.16 µM
# [6] = second compound 0.1 µM, first compound 0.0316 µM
# [7] = second compound 0.1 µM, first compound 0.1 µM
# [8] = second compound 0.1 µM, first compound 0.316 µM
# [9] = second compound 0.1 µM, first compound 1 µM
# [10] = second compound 0.1 µM, first compound 3.16 µM
# [11] = second compound 0.316 µM, first compound 0.0316 µM
# [12] = second compound 0.316 µM, first compound 0.1 µM
# [13] = second compound 0.316 µM, first compound 0.316 µM
# [14] = second compound 0.316 µM, first compound 1 µM
# [15] = second compound 0.316 µM, first compound 3.16 µM
# [16] = second compound 1 µM, first compound 0.0316 µM
# [17] = second compound 1 µM, first compound 0.1 µM
# [18] = second compound 1 µM, first compound 0.316 µM
# [19] = second compound 1 µM, first compound 1 µM
# [20] = second compound 1 µM, first compound 3.16 µM
# [21] = second compound 3.16 µM, first compound 0.0316 µM
# [22] = second compound 3.16 µM, first compound 0.1 µM
# [23] = second compound 3.16 µM, first compound 0.316 µM
# [24] = second compound 3.16 µM, first compound 1 µM
# [25] = second compound 3.16 µM, first compound 3.16 µM
# [26] = second compound 0.0316 µM, first compound 10 µM
# [27] = second compound 0.1 µM, first compound 10 µM
# [28] = second compound 0.316 µM, first compound 10 µM
# [29] = second compound 1 µM, first compound 10 µM
# [30] = second compound 3.16 µM, first compound 10 µM
# 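Further: viability read after seven days of drug exposure.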
Compound,IC50 (second compound 0.0316 µM) [nM],IC50 (second compound 0.1 µM) [nM],IC50 (second compound 0.316 µM) [nM],IC50 (second compound 1 µM) [nM],IC50 (second compound 3.16 µM) [nM],"viability, T/C [1] [%]","viability, T/C [2] [%]","viability, T/C [3] [%]","viability, T/C [4] [%]","viability, T/C [5] [%]","viability, T/C [6] [%]","viability, T/C [7] [%]","viability, T/C [8] [%]","viability, T/C [9] [%]","viability, T/C [10] [%]","viability, T/C [11] [%]","viability, T/C [12] [%]","viability, T/C [13] [%]","viability, T/C [14] [%]","viability, T/C [15] [%]",further results
CC1COCCN1c1cc(-c2ccnn2C)c2ccnc(-c3ccn[nH]3)c2n1 (stereo not given) + C=CC(=O)N1CCN(c2nc(OCC3CCCN3C)nc3c2CCN(c2cccc4cccc(C)c24)C3)CC1CC#N,30.6,29.6,22.9,17,< 10,48.6,10.9,13.4,21.8,27.5,46.4,9.45,13.1,21.9,26.9,32,7.93,11.4,19.9,27.3,"viability, T/C (second compound 0.0316 µM, first compound 0.01 µM): 95.8%; viability, T/C (second compound 0.1 µM, first compound 0.01 µM): 109%; viability, T/C (second compound 0.316 µM, first compound 0.01 µM): 96%; viability, T/C (second compound 1 µM, first compound 0.01 µM): 77.8%; viability, T/C [16]: 17.8%; viability, T/C [17]: 5.2%; viability, T/C [18]: 9.79%; viability, T/C [19]: 17.1%; viability, T/C [20]: 21.1%; viability, T/C (second compound 3.16 µM, first compound 0.01 µM): 10.7%; viability, T/C [21]: 6.36%; viability, T/C [22]: 4.26%; viability, T/C [23]: 6.86%; viability, T/C [24]: 11%; viability, T/C [25]: 15.3%"
CC1OCC2(CCN(c3cnc(Sc4ccnc(N)c4Cl)c(N)n3)CC2)C1N (stereo not given) + C=CC(=O)N1CCN(c2nc(OCC3CCCN3C)nc3c2CCN(c2cccc4cccc(C)c24)C3)CC1CC#N,> 10000,> 10000,> 10000,> 10000,< 31.6,92.9,79,75.2,63.5,60,99.8,88.1,74.5,68.6,63.3,84.5,84.4,65.4,59.2,65.9,"viability, T/C [26]: 70.8%; viability, T/C [27]: 66.6%; viability, T/C [28]: 58.4%; viability, T/C [16]: 84.8%; viability, T/C [17]: 70.7%; viability, T/C [18]: 59.2%; viability, T/C [19]: 56.9%; viability, T/C [20]: 57.4%; viability, T/C [29]: 55.5%; viability, T/C [21]: 15.1%; viability, T/C [22]: 13.1%; viability, T/C [23]: 15.4%; viability, T/C [24]: 13%; viability, T/C [25]: 5.45%; viability, T/C [30]: 5.43%"
CCNC(=O)CC1N=C(c2ccc(Cl)cc2)c2cc(OC)ccc2-n2c(C)nnc21 (stereo not given) + C=CC(=O)N1CCN(c2nc(OCC3CCCN3C)nc3c2CCN(c2cccc4cccc(C)c24)C3)CC1CC#N,395,340,302,291,< 31.6,106,94.9,52.9,38,32.4,96.3,79.4,50.7,36,34.3,103,97.6,47.8,35.2,31.6,"viability, T/C [26]: 34.2%; viability, T/C [27]: 30.1%; viability, T/C [28]: 32.7%; viability, T/C [16]: 84.3%; viability, T/C [17]: 77%; viability, T/C [18]: 48.1%; viability, T/C [19]: 30.1%; viability, T/C [20]: 28.1%; viability, T/C [29]: 29.4%; viability, T/C [21]: 29.8%; viability, T/C [22]: 22%; viability, T/C [23]: 22.2%; viability, T/C [24]: 0.29%; viability, T/C [25]: 14.3%; viability, T/C [30]: 11.2%"
Cn1nccc1Nc1nccc(-c2cc3c(s2)C(C)(C)N(CCN2CCOCC2)C3=O)n1 + C=CC(=O)N1CCN(c2nc(OCC3CCCN3C)nc3c2CCN(c2cccc4cccc(C)c24)C3)CC1CC#N,657,546,458,170,< 31.6,100,95.3,64.3,40.6,29.7,98.2,76.6,57.1,44.5,23.8,78.4,81,48.3,41.9,22.1,"viability, T/C [26]: 19.1%; viability, T/C [27]: 17.1%; viability, T/C [28]: 16.8%; viability, T/C [16]: 75.5%; viability, T/C [17]: 52.1%; viability, T/C [18]: 41.6%; viability, T/C [19]: 38%; viability, T/C [20]: 23.3%; viability, T/C [29]: 17.9%; viability, T/C [21]: 11.5%; viability, T/C [22]: 10.4%; viability, T/C [23]: 6.73%; viability, T/C [24]: 1.86%; viability, T/C [25]: 0.55%; viability, T/C [30]: 0.33%"
